Here are results for 14 compounds from paper PMC8138772 (The Journal of Biological Chemistry, 2021).

Entries after “also recorded” stand apart in the source; their conditions may differ. [ ]: non-standard residue; d: D form. The star is where a group is joined. Biotin = O=C1N[C@H]2[C@H](CS[C@H]2CCCCC(=O)*)N1; Cit = NC(=O)NCCC[C@H](N)C(=O)O

Data set [1] has as its target K562 αvβ6:mCherry cells (αvβ6 integrin) (Homo sapiens, UniProt P06756+P18564). It counts as binding.
For a further data set, the system named is K562 cells. It counts as binding.
A short description of the next data set: in vitro. Particulars: mouse, serum.
The conditions of data set [2]: mouse.
The nature of a further data set: normal mouse serum. Conditions: 37 °C.

Chain of K562 αvβ6:mCherry cells (αvβ6 integrin) (P06756 31-889 limits assumed): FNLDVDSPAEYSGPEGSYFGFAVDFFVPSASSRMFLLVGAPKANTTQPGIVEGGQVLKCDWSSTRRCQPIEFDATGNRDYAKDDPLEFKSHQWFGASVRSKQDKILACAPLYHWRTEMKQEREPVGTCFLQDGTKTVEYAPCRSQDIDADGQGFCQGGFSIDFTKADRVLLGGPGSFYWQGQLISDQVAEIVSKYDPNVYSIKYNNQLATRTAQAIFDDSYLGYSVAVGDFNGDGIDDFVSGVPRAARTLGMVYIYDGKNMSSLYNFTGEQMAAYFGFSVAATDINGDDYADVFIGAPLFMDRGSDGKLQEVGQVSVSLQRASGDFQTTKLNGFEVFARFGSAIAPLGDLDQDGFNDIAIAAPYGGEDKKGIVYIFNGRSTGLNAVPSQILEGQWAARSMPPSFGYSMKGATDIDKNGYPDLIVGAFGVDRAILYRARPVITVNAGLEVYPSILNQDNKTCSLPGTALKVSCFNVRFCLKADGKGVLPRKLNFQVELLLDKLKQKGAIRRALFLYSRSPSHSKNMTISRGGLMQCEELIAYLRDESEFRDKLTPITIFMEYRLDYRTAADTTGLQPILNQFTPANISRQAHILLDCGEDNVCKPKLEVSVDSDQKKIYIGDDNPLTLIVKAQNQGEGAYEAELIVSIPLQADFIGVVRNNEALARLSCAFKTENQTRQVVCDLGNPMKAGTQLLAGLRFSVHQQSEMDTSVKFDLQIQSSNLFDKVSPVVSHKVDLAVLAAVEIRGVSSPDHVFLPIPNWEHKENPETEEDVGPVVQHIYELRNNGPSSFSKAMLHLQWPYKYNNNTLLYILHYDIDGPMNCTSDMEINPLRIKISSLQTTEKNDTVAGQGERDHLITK
Chain of K562 αvβ6:mCherry cells (αvβ6 integrin) (P06756 891-1048 partner limits assumed): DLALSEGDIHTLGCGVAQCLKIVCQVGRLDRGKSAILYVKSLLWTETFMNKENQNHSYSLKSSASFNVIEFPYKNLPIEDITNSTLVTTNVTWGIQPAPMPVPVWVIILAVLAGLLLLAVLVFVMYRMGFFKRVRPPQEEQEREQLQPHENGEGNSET
Chain of K562 αvβ6:mCherry cells (αvβ6 integrin) (P18564 22-788 limits assumed): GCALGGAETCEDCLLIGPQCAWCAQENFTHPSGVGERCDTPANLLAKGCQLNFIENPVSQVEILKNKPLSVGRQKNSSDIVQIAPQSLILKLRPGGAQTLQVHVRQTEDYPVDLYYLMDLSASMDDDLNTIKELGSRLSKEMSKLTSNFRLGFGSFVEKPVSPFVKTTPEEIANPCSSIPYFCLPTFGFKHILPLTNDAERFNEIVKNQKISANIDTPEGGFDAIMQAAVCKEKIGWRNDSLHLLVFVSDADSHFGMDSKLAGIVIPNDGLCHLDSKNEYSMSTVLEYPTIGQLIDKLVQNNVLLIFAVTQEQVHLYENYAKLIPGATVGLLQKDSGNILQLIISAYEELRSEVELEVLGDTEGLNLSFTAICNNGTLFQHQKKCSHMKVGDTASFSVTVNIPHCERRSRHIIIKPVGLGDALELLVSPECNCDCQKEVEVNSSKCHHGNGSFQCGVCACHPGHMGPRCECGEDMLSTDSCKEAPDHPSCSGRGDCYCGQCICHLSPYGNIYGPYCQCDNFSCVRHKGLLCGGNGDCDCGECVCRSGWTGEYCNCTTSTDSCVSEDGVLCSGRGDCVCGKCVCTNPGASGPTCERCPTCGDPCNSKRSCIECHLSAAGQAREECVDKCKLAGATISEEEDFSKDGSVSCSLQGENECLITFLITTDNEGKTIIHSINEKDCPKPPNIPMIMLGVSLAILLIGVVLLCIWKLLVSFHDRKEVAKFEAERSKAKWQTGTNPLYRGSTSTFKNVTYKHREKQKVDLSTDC

On to `CC(C)C[C@@H]1NC(=O)[C@H](CC(=O)O)NC(=O)CNC(=O)[C@H](CCCNC(=N)N)NC(=O)[C@H](CC(C)C)NC(=O)[C@H](CC(N)=O)NC(=O)[C@@H]2CCCN2C(=O)[C@H](C(C)C)NC(=O)[C@H](C)NC(=O)[C@@H](NC(=O)CCCC[C@@H]2SC[C@@H]3NC(=O)N[C@@H]32)CSc2c(F)c(F)c(c(F)c2F)-c2c(F)c(F)c(c(F)c2F)SC[C@@H](C(=O)N[C@@H](CCCNC(=N)N)C(=O)N[C@H](C(=O)N[C@@H](CCCCN)C(N)=O)[C@@H](C)O)NC(=O)[C@H](C(C)C)NC(=O)[C@H](CCCCN)NC(=O)[C@H](CCC(N)=O)NC(=O)[C@H](C)NC(=O)[C@H](CC(C)C)NC(=O)[C@H](C(C)C)NC(=O)[C@H](CCC(N)=O)NC1=O` [C1C18 DFBP], for which the “binding to K562 αvβ6:mCherry cells (in words)” value in data set [1] was “high affinity and specificity comparable to the original A20FMDV2 peptide”.
With `CC(C)C[C@@H]1NC(=O)[C@H](CC(=O)O)NC(=O)CNC(=O)[C@H](CCCNC(=N)N)NC(=O)[C@H](CC(C)C)NC(=O)[C@H](CC(N)=O)NC(=O)[C@@H]2CCCN2C(=O)[C@H](C(C)C)NC(=O)[C@H](C)NC(=O)[C@@H](NC(=O)CCCC[C@@H]2SC[C@@H]3NC(=O)N[C@@H]32)CSc2c(F)c(F)c(c(F)c2F)-c2c(F)c(F)c(c(F)c2F)SC[C@@H](C(=O)N[C@H](C(=O)N[C@@H](CCCCN)C(N)=O)[C@@H](C)O)NC(=O)[C@H](C)NC(=O)[C@H](C(C)C)NC(=O)[C@H](CCCCN)NC(=O)[C@H](CCC(N)=O)NC(=O)[C@H](C)NC(=O)[C@H](CC(C)C)NC(=O)[C@H](C(C)C)NC(=O)[C@H](CCC(N)=O)NC1=O` [C1C19 DFBP], in the data set with K562 cells, the “binding to parental K562 cells (in words)” value was “significantly bound to parental K562 cells at high concentrations”.
Consider `CC(C)C[C@@H]1NC(=O)[C@H](CC(=O)O)NC(=O)CNC(=O)[C@H](CCCNC(=N)N)NC(=O)[C@H](CC(C)C)NC(=O)[C@H](CC(N)=O)NC(=O)[C@@H]2CCCN2C(=O)[C@H](C(C)C)NC(=O)[C@H](C)NC(=O)[C@@H](NC(=O)CCCC[C@@H]2SC[C@@H]3NC(=O)N[C@@H]32)CSc2c(F)c(F)c(c(F)c2F)-c2c(F)c(F)c(c(F)c2F)SC[C@@H](C(=O)N[C@@H](CCCCN)C(N)=O)NC(=O)[C@H](CCCNC(=N)N)NC(=O)[C@H](C)NC(=O)[C@H](C(C)C)NC(=O)[C@H](CCCCN)NC(=O)[C@H](CCC(N)=O)NC(=O)[C@H](C)NC(=O)[C@H](CC(C)C)NC(=O)[C@H](C(C)C)NC(=O)[C@H](CCC(N)=O)NC1=O` [C1C20 DFBP], for which the “binding to K562 αvβ6:mCherry cells (in words)” value in data set [1] is “high affinity and specificity comparable to the original A20FMDV2 peptide”.
Consider `CC(C)C[C@@H]1NC(=O)[C@H](CC(=O)O)NC(=O)CNC(=O)[C@H](CCCNC(=N)N)NC(=O)[C@H](CC(C)C)NC(=O)[C@H](CC(N)=O)NC(=O)[C@@H]2CCCN2C(=O)[C@H](C(C)C)NC(=O)[C@@H](NC(=O)[C@H](CC(N)=O)NC(=O)CCCC[C@@H]2SC[C@@H]3NC(=O)N[C@@H]32)CSc2c(F)c(F)c(c(F)c2F)-c2c(F)c(F)c(c(F)c2F)SC[C@@H](C(=O)N[C@@H](CCCNC(N)=O)C(=O)N[C@H](C(=O)N[C@@H](CCCCN)C(=O)N[C@H](C)C(N)=O)[C@@H](C)O)NC(=O)[C@H](C(C)C)NC(=O)[C@H](CCCCN)NC(=O)[C@H](CCC(N)=O)NC(=O)[C@H](C)NC(=O)[C@H](CC(C)C)NC(=O)[C@H](C(C)C)NC(=O)[C@H](CCC(N)=O)NC1=O` [C2C18 CitTKAD DFBP], for which, in “in vitro”, the half-life (as a rule, the time in which the quantity being followed falls by half) is 4.96 h.
For `CC(C)C[C@@H]1NC(=O)[C@H](CC(=O)O)NC(=O)CNC(=O)[C@H](CCCNC(=N)N)NC(=O)[C@H](CC(C)C)NC(=O)[C@H](CC(N)=O)NC(=O)[C@@H]2CCCN2C(=O)[C@H](C(C)C)NC(=O)[C@@H](NC(=O)[C@H](CC(N)=O)NC(=O)CCCC[C@@H]2SC[C@@H]3NC(=O)N[C@@H]32)CSc2c(F)c(F)c(c(F)c2F)-c2c(F)c(F)c(c(F)c2F)SC[C@@H](C(=O)N[C@@H](CCCNC(=N)N)C(=O)N[C@H](C(=O)N[C@@H](CCCCN)C(N)=O)[C@@H](C)O)NC(=O)[C@H](C(C)C)NC(=O)[C@H](CCCCN)NC(=O)[C@H](CCC(N)=O)NC(=O)[C@H](C)NC(=O)[C@H](CC(C)C)NC(=O)[C@H](C(C)C)NC(=O)[C@H](CCC(N)=O)NC1=O` [C2C18 DFBP], the “binding to K562 αvβ6:mCherry cells (in words)” value in data set [1] was “high affinity and specificity comparable to the original A20FMDV2 peptide”.
With `CC(C)C[C@@H]1NC(=O)[C@H](CC(=O)O)NC(=O)CNC(=O)[C@H](CCCNC(=N)N)NC(=O)[C@H](CC(C)C)NC(=O)[C@H](CC(N)=O)NC(=O)[C@@H]2CCCN2C(=O)[C@H](C(C)C)NC(=O)[C@@H](NC(=O)[C@H](CC(N)=O)NC(=O)CCCC[C@@H]2SC[C@@H]3NC(=O)N[C@@H]32)CSc2c(F)c(F)c(c(F)c2F)-c2c(F)c(F)c(c(F)c2F)SC[C@@H](C(=O)N[C@H](CCCNC(=N)N)C(=O)N[C@H](C(=O)N[C@@H](CCCCN)C(=O)N[C@H](C)C(N)=O)[C@@H](C)O)NC(=O)[C@H](C(C)C)NC(=O)[C@H](CCCCN)NC(=O)[C@H](CCC(N)=O)NC(=O)[C@H](C)NC(=O)[C@H](CC(C)C)NC(=O)[C@H](C(C)C)NC(=O)[C@H](CCC(N)=O)NC1=O` [C2C18 RDTKAD DFBP], in data set [1], the “reduced binding fluorescence (maximal signal versus A20FMDV2, Fig. 3B)” value was roughly 60%. The “t1/2 of intact peptide in serum” value in data set [2] turned out to be 4.518 h.
As for `CC(C)C[C@@H]1NC(=O)[C@H](CC(=O)O)NC(=O)CNC(=O)[C@H](CCCNC(=N)N)NC(=O)[C@H](CC(C)C)NC(=O)[C@H](CC(N)=O)NC(=O)[C@@H]2CCCN2C(=O)[C@H](C(C)C)NC(=O)[C@@H](NC(=O)[C@H](CC(N)=O)NC(=O)CCCC[C@@H]2SC[C@@H]3NC(=O)N[C@@H]32)CSc2c(F)c(F)c(c(F)c2F)-c2c(F)c(F)c(c(F)c2F)SC[C@@H](C(=O)N[C@H](C(=O)N[C@@H](CCCCN)C(N)=O)[C@@H](C)O)NC(=O)[C@H](C)NC(=O)[C@H](C(C)C)NC(=O)[C@H](CCCCN)NC(=O)[C@H](CCC(N)=O)NC(=O)[C@H](C)NC(=O)[C@H](CC(C)C)NC(=O)[C@H](C(C)C)NC(=O)[C@H](CCC(N)=O)NC1=O` [C2C19 DFBP], the “binding to parental K562 cells (in words)” value in the data set on K562 cells is “significantly bound to parental K562 cells at high concentrations”.
On to “Biotin-CADVPNLRGDLQVLADQKVCRDTKDAD-NH2 (cysteine pairing not given here)”, for which, in “normal mouse serum” (up to 24 h), the cleaved bond result is on record as “KD21-AD22, 24 h; also recorded: L6-Arg7, major” and the fragment found is recorded as 719: unidentified, 4 h.
For “Biotin-CAVPNLRGDLQVLAQKVCRTK-NH2 (cysteine pairing not given here)”, the cleaved bond result in “normal mouse serum” (up to 6 h) is “C18-arginine19”.
The same measure, in the same setting: with “Biotin-CAVPNLRGDLQVLAQKVCRTK-NH2 (cysteine pairing not given here) [C1C18 DFBP]” the entry was “C18-arginine19, 2 h”.
In the case of “Biotin-NCVPNLRGDLQVLAQKVCRDTKAD-NH2 (cysteine pairing not given here)”, the cleaved bond result in “normal mouse serum” (up to 24 h) is listed as “L6-Arg7, major, 8 h; also recorded: Arg7-G8, major, 8 h; also recorded: Asn1-C2, 24 h”.
Turning to “Biotin-NCVPNLRGDLQVLAQKVCRTK-NH2 (cysteine pairing not given here)”, the cleaved bond result in “normal mouse serum” (up to 6 h) is recorded as “C18-arginine19, 2 h”.
Regarding “Biotin-NCVPNLRGDLQVLAQKVC[Cit]TKAD-NH2 (cysteine pairing not given here)”, the cleaved bond result in the data set “normal mouse serum” (up to 24 h) was “Thr20-K21, 12 h”.
The same measure, in the same setting: with biotin-NCVPhNLRGDLQVLAQKVCRDTKAD-amide the entry was “Asn1-C2, 24 h”.
